Where two headings read alike, the source gives them in different places.
Assays:
[1] = target: GTPγS-bound human HRasG12V / human c-Raf-1 Ras binding domain (RBD) (Homo sapiens (Human), UniProt P01112, G12V); assay: Ras-Raf binding inhibition ELISA
Method: The in vitro Ras-Raf binding inhibitory activity of the compound of the present invention was evaluated by an ELISA method (Enzyme-Linked ImmunoSorbent Assay) described below.
Ras and Raf used upon the evaluation were purified and activated by the following method.
Using a pGEX6P-1 vector (GE Healthcare), human HRasG12V (full length, 1-189 amino acid residues) and human c-Raf-1 Ras binding domain (RBD) (50-131 amino acid residues) were each allowed to express as a fusion body with glutathione S-transferase (GST) in E. coli.
GST-HRasG12V-expressing cells were subjected to ultrasonication in a buffer {50 mM Tris-HCl pH 7.4, 150 mM NaCl, 5 mM MgCl2, 1 mM ethylenediaminetetraacetic acid (EDTA), 1 mM dithiothreitol (DTT), 10% glycerol, and 1% Triton-X100}, and were then centrifuged at 100,000×g for 30 minutes, so as to collect the supernatant as a Ras protein fraction. HRasG12V in the supernatant was immobilized on a glutathione-agarose resin, and GST was then cleaved with PreScission Protease (GE Healthcare) for purification. The obtained HRasG12V was mixed with guanosine 5′-O-[gamma-thio]triphosphate trisodium salt (GTPTS) of 1000 times higher concentration at 30° C. for 1 hour, and thereafter, 20 mM MgCl2 (final concentration) was added to stop the reaction and collect the GTPgS-loaded HRasG12V as a product.
On the other hand, GST-c-Raf-1 RBD-expressing cells were subjected to ultrasonication in the same buffer as described above, and were then centrifuged at 100,000×g for 30 minutes, so as to collected the supernatant as a GST-c-Raf-1 RBD protein fraction.
The in vitro Ras-Raf binding inhibitory activity of the compound of the present invention was evaluated by an ELISA method described below.
GST-c-Raf-1 RBD diluted with a Ras-Raf binding buffer (50 mM Tris-HCl pH7.4, 150 mM NaCl, 5 mM MgCl2, 1 mM EDTA, and 1% Triton-X100) was added to each well of a glutathione-coated 96-well plate (Thermo Fisher Scientific.), and was incubated at 30° C. for 1 hour, to immobilize Raf on the well. The unbound free Raf was eliminated by washing the well with the Ras-Raf binding buffer three times. Subsequently, GTPTS-bound HRasG12V diluted with the Ras-Raf binding buffer and each compound solution (final DMSO concentration: 10%) were applied to each well, and the resulting mixture was then incubated at 30° C. for 1 hour, so that Ras and Raf were allowed to bind to each other. Thereafter, the plate was washed with the Ras-Raf binding buffer twice, and was then subjected to a blocking treatment at room temperature for 20 minutes, using TBS-Tween {10 mM Tris-HCl pH 7.4, 150 mM NaCl, and 0.05% (w/v) Tween-20}-5% (w/v) bovine serum albumin (BSA). After that, an anti-HRas antibody (C-20, Santa Cruz) or an anti-HRas antibody (259, Santa Cruz), which had been 1000 times diluted with TBS-Tween-5% BSA, was added to the reaction mixture, and incubated at room temperature for 1 hours. After the treatment with the primary antibody, the plate was washed with TBS-Tween-5% BSA three times, and a horseradish peroxidase-labeled secondary antibody against rabbit immunoglobulin G (GE Healthcare) of 1000 times diluted with TBS-Tween-5% BSA, was added to the plate, followed by incubation at room temperature for 1 hour. After the treatment with the secondary antibody, the plate was washed with TBS-Tween-5% BSA three times, and a substrate solution (TMB) was then added to the plate, followed by incubation at room temperature for 15 minutes for coloration. Finally, 2 M H2SO4 was added to stop color development (coloration reaction kit: Nacalai Tesque). The absorbance at 450 nm (OD450) was measured, so that the color intensity was quantified. Inhibition by the test compound was determined according to the following equation: […]
IC50 (*) in which the anti-HRas antibody (259, Santa Cruz) was used

[2] = tested on: large bowel cancer cell SW620 (K-RasG12V); assay: Cell growth inhibition, adherent cells SW620; type: cell-based; settings: Homo sapiens, SW-620, 72 hours; for inhibition at 3.2 µM: read-out: SW620 (KRasG12V) % inhibition at 3.2 μM (***); for inhibition at 1 µM: read-out: SW620 (KRasG12V) % inhibition at 1 μM
Method: (§1) The cell growth inhibitory activity of the compound of the present invention on human culture cells having active-type mutation in Ras was evaluated by the below-mentioned method using suspension cancer cells {acute lymphoblastic leukemia cells CCRF-CEM (K-RasG12D), promyelocytic leukemia cells HL60 (N-RasQ61L), acute lymphoblastic leukemia cells MOLT4 (N-RasG12C), and small cell lung cancer cells SHP77 (K-RasG12V)} and adherent cancer cells {large bowel cancer cells SW480 (K-RasG12V) and large bowel cancer cell SW620 (K-RasG12V)}.
(Case of adherent cells) The cells suspended in a medium containing 10% FBS (1 to 2×10^4 cells/well) were seeded on a 96-well plate, and were then cultured at 37° C. in the presence of […]. Thereafter, the medium was exchanged with a medium containing […], to which each compound solution (final DMSO concentration: […]) had been added, and the cells were then cultured at 37° C. in the presence of […] for 72 hours.
(§2) Thereafter, the number of viable cells was measured using Cell Counting Reagent (Nacalai Tesque) in accordance with the manufacturer's instructions. Inhibition by the test compound was determined according to the following equation: […]

[3] = tested on: promyelocytic leukemia cells HL60 (N-RasQ61L); assay: Cell growth inhibition, suspension cells HL60; type: cell-based; settings: Homo sapiens, HL-60, 72 hours; for inhibition at 1.1 µM: read-out: HL-60 (NRasQ61L) % inhibition at 1.1 μM (*); for inhibition at 3.3 µM: read-out: HL-60 (NRasQ61L) % inhibition at 3.3 μM (**); for inhibition at 3.2 µM: read-out: HL-60 (NRasQ61L) % inhibition at 3.2 μM (****)
Method: as §1
(Case of suspension cells) The cells suspended in a medium containing 0.5% (v/v) fetal bovine serum (FBS) and each compound solution (final DMSO concentration: 1%) were seeded on a 96-well plate (2 to 4×10^4 cells/well), and the resulting mixture was then cultured at 37° C. in the presence of 5% CO2 for 72 hours.
as §2

[4] = anti-HRas antibody C-20, read-out: ELISA IC50 (μM): 1st Ab_C-20
[5] = anti-HRas antibody 259 (*), read-out: ELISA IC50 (μM): 1st Ab_259 (*)

Chain of GTPγS-bound human HRasG12V / human c-Raf-1 Ras binding domain (RBD) (P01112 whole entry G12V, the tested form may be a part): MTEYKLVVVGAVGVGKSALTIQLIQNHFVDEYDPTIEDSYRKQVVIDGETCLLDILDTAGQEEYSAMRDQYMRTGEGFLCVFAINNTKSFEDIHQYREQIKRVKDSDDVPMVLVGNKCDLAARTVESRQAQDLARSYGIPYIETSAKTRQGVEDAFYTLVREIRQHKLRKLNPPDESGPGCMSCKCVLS

SMILES | inhibition at 1 µM [1] [%] | IC50 [1, 4] [µM] | inhibition at 3.2 µM [2] [%] | inhibition at 1 µM [2] [%] | inhibition at 3.3 µM [3] [%] | further results
CC(=O)N1/C(=C\c2cc(-c3cnn(C)c3)c3cc(CNC4CCOCC4)ccc3n2)C(=O)c2ccccc21 [Example 205, (Z)-1-acetyl-2-((4-(1-methyl-1H-pyrazol-4-yl)-6-(((tetrahydro-2H-pyran-4-yl)amino)-methyl)quinolin-2-yl)methylene)-indolin-3-one] | 66.3 | 0.7 | 37 | – | – | –
CC(=O)N1/C(=C\c2cc(-c3ccccc3-c3ccccc3)c3cc(C(=O)N4CCN(C5COC5)CC4)ccc3n2)C(=O)c2ccccc21 [Example 95, (Z)-2-((4-([1,1′-biphenyl]-2-yl)-6-(4-(oxetan-3-yl)-piperazine-1-carbonyl)quinolin-2-yl)methylene)-1-acetylindolin-3-one] | – | 0.44 | – | 70 | – | inhibition at 1.1 µM [3]: 88%
CC(=O)N1/C(=C\c2cc(-c3ccccc3-c3ccccc3)c3cc(C(=O)O)ccc3n2)C(=O)c2ccccc21 [Example 128, (Z)-4-([1,1′-biphenyl]-2-yl)-2-((1-acetyl-3-oxo-indolin-2-ylidene)-methyl)quinoline-6-carboxylic acid] | – | 0.49 | – | 70 | 96 | –
CC(=O)N1/C(=C\c2cc(-c3ccccc3-c3ccccc3)c3cc(C(N)=O)ccc3n2)C(=O)c2ccccc21 [Example 141, (Z)-4-([1,1′-biphenyl]-2-yl)-2-((1-acetyl-3-oxo-indolin-2-ylidene)-methyl)quinoline-6-carboxamide] | 46.2 | 1.2 | 91.3 | – | – | inhibition at 3.2 µM [3]: 94.6%
CC(=O)N1/C(=C\c2cc(-c3ncn(C)n3)c3cc(C(=O)N4CCOCC4)ccc3n2)C(=O)c2ccccc21 [Example 188, (Z)-1-acetyl-2-((4-(1-methyl-1H-1,2,4-triazol-3-yl)-6-(morpholine-4-carbonyl)quinolin-2-yl)methylene)-indolin-3-one] | 53.7 | 0.9 | 79.3 | – | – | –
CC(=O)N1C(=Cc2cc(-c3cccnc3-c3ccccc3)c3cc(C(=O)N4CCOCC4)ccc3n2)C(=O)c2ccccc21 [Example 94, 1-acetyl-2-((6-(morpholine-4-carbonyl)-4-(2-phenylpyridin-3-yl)quinolin-2-yl)-methylene)indolin-3-one] | – | – | – | 82 | 96 | –
CC(=O)N1/C(=C\c2ccc3cc(CNC4CCN(C5COC5)CC4)ccc3n2)C(=O)c2ccccc21 [Example 138, (Z)-1-acetyl-2-((6-(((1-(oxetan-3-yl)piperidin-4-yl)amino)meth-yl)quinolin-2-yl)-methylene)indolin-3-one] | – | – | – | – | 65 | IC50 [1, 5]: 0.88 µM
CC(=O)N1/C(=C/c2cc(-c3ccnc4ccccc34)c3cc(C(=O)N4CCOCC4)ccc3n2)C(=O)c2ccccc21 [Example 117, (E)-1-acetyl-2-((6-(morpholine-4-carbonyl)-[4,4′-biquinolin]-2-yl)-methylene)indolin-3-one] | – | – | – | 66 | 94 | –
CC(=O)N1/C(=C\c2ccc3cc(CN4CCN(C5COC5)CC4)ccc3n2)C(=O)c2ccccc21 [Example 74, (Z)-1-acetyl-2-((6-((4-(oxetan-3-yl)piperazin-1-yl)methyl)quinolin-2-yl)methylene)-indolin-3-one] | – | – | – | – | – | inhibition at 10 µM ([3]; 10 μM (***), read-out: HL-60 (NRasQ61L) % inhibition at 10 μM (***)): 99%; IC50 [1, 5]: 0.71 µM

More lines, main results first:

inhibition at 1 µM [1] [%] | IC50 [1, 4] [µM] | SMILES | inhibition at 3.2 µM [2] [%] | inhibition at 1 µM [2] [%] | inhibition at 3.3 µM [3] [%] | further results
72 | 0.4 | CC(=O)N1/C(=C\c2cc(-c3cnn(C)c3)c3cc(C(=O)N4CCOCC4)ccc3n2)C(=O)c2ccccc21 [Example 171, (Z)-1-acetyl-2-((4-(1-methyl-1H-pyrazol-4-yl)-6-(morpholine-4-carbonyl)quinolin-2-yl)methylene)-indolin-3-one] | 79.5 | – | – | –
– | 0.5 | CC(=O)N1/C(=C\c2cc(-c3ccccc3-c3ccccc3)c3cc(C(=O)N4CCOCC4)ccc3n2)C(=O)c2ccccc21 [Example 89, (Z)-2-((4-([1,1′-biphenyl]-2-yl)-6-(morpholine-4-carbonyl)quinolin-2-yl)methylene)-1-acetylindolin-3-one] | – | 71 | – | inhibition at 1.1 µM [3]: 95%
– | 0.98 | CC(=O)N1/C(=C\c2cc(-c3cccc(-c4ccccc4)c3)c3cc(C(=O)N4CCOCC4)ccc3n2)C(=O)c2ccccc21 [Example 88, (Z)-2-((4-([1,1′-biphenyl]-3-yl)-6-(morpholine-4-carbonyl)quinolin-2-yl)methylene)-1-acetylindolin-3-one] | – | 46 | 89 | –
66.1 | 0.5 | CC(=O)N1C(=Cc2cc(-c3ccc4c(c3)CCNC4=O)c3cc(C(=O)N4CCOCC4)ccc3n2)C(=O)c2ccccc21 (racemic) [Example 147, 6-(2-((1-acetyl-3-oxoindolin-2-ylidene)methyl)-6-(morpholine-4-carbonyl)quinolin-4-yl)-3,4-dihydro-isoquinolin-1(2H)-one] | 92.2 | – | – | inhibition at 3.2 µM [3]: 59.1%
66.8 | 0.5 | CC(=O)N1/C(=C\c2cc(-c3cn[nH]c3)c3cc(C(=O)N4CCOCC4)ccc3n2)C(=O)c2ccccc21 [Example 170, (Z)-1-acetyl-2-((6-(morpholine-4-carbonyl)-4-(1H-pyrazol-4-yl)quinolin-2-yl)-methylene)indolin-3-one] | 41.6 | – | – | –

Reference: patent publication US20250091994A1, “RAS/RAF BINDING INHIBITOR COMPOUND” (NATIONAL UNIVERSITY CORPORATION KOBE UNIVERSITY, priority 2021, published 2025)
